Measurements: patent US8198098B2, “Optical measurement method for determining the pH of a medium using ageladine A as a fluorescent pH indicator” (Stiftung Alfred-Wegener-Institut fuer Polar-und …, priority 2007, dated 2012)
“Also recorded” adds a separate entry of the source.

Key:
[1] = detectable pH range of the fluorescent pH indicator; taken from probes.invitrogen.com handbook table; cited from earlier work
[2] = fluorescence intensity of ageladine A as a function of the pH of the solution; type: physicochemical
From the text: The optical measurement method according to an embodiment of the present invention includes an alternative fluorescent pH indicator based on ageladine A. Ageladine A is a known natural marine substance in the form of a pyrrole-imidazole alkaloid which has heretofore been used exclusively for medical purposes. Ageladine A can be obtained both from marine sponges and produced synthetically. It is therefore readily possible, by means of the total syntheses described, to prepare large quantities of ageladine A without having to have recourse to marine sponges. […] When using ageladine A as a fluorescent pH indicator, pH changes of the medium to be investigated between pH4 and pH9 can be reliably optically indicated by means of a changeable fluorescence intensity in such a manner that the emitted fluorescence intensity increases as the pH falls. […] Advantageously, samples that have been taken (in vitro), but also living cells, tissue and entire organisms (in vivo) can be incubated with ageladine A as fluorescent pH indicator and stained in this manner by means of the fluorescence in the green range. This enables measurements of the pH in vivo and in vitro in a wide range and thus the detection of acidic tissue in organisms due to its fluorescence properties. The fluorescence in the green range increases markedly as the pH falls. […] The fluorescence intensity was measured at 510 nm. […]

PC-12 cells = experiment: staining of cells with ageladine A and measurement of intracellular pH; type: cell-based, rat; conditions: PC-12 cells incubated with ageladine A, excitation 380 nm
Description: FIGS. 2A, 2B show images, at 400-times magnification, of cells (PC-12 cells, rat, deposited at DSMZ) incubated with ageladine A and stained by means of the same. Excitation took place using UV light with a wavelength of 380 nm.
The fluorescence ratio value (340 nm/380 nm) is plotted over time (time in s). The various pHs of the buffer solution are marked as parameters on the graph. It can clearly be recognized that the fluorescence emission follows the extracellular increase of the pH of the solution in a wide range (pH6.5 to pH3). The change of the intracellular pH is only a few tenths around pH7, as a result of which a very high measurement resolution of the pH indicator results.

[3] = system: shrimp (Palaemonetes argentinus); experiment: in-vivo staining of a living organism with ageladine A
From the text: The green curve (lowest straight curve) indicates fluorescence intensity values within the buffer solution outside of the shrimp, the red and blue curves (middle and upper curved curves) indicate fluorescence intensity values within the shrimp and thus, in a simple manner, easily recognizable and detectable acidic constituents of the shrimp.

**Q.** With O=S(=O)([O-])c1cc(O)c2ccc3c(S(=O)(=O)[O-])cc(S(=O)(=O)[O-])c4ccc1c2c34.[Na+].[Na+].[Na+] [HPTS (pyranine), pyranine] as the compound, how does the “PH RANGE” value [1] read?
**A.** Its value is 7.0-8.0.

**Q.** With O=c1c2cccc3c(NCCN4CCOCC4)ccc(c32)c2nc3ccccc3n12 [LysoSensor Green DND-189] as the compound, how does the “PH RANGE” value [1] read?
**A.** The value was 4.5-6.0.

**Q.** What does the source list for Nc1nc2ccnc(-c3cc(Br)c(Br)[nH]3)c2[nH]1 [ageladine A]?
**A.** stability of the stainings ([2]; cells, tissue, organisms incubated with ageladine A): stable over hours to days; also recorded: last for at least a plurality of days; stability of fluorescence under UV irradiation ([2]; despite UV irradiation): stable for hours; staining of cells (PC-12 cells): stained; penetration into tissue ([3]; intact, living organisms, on account of lipophilic structure (bromination)): penetrates very quickly and far into the tissue; in-vivo staining of tissue ([3]; shrimp incubated with ageladine A, irradiated with UV light): acidic structures (mouth-digestive region) in the shrimp were stained
